# According to US5840684A, “Glycopeptide antibiotic derivatives” (Eli Lilly and Company, priority 1995, dated 1998):
# How the values were obtained:
# [1] = system: Staphylococcus aureus X778; assay: broth micro-dilution MIC; format: cell-based
# Experimental: (§1) The MIC's were determined using a standard broth micro-dilution assay.
# [2] = system: Staphylococcus aureus SA1199; assay: broth micro-dilution MIC; format: cell-based
# Experimental: as §1
# [3] = system: Staphylococcus aureus 446; assay: broth micro-dilution MIC; format: cell-based
# Experimental: as §1
# Entercoccus faecium 276 = assay: broth micro-dilution MIC; format: cell-based
# Experimental: as §1
# [4] = system: Streptococcus pyogenes C203; assay: broth micro-dilution MIC; format: cell-based
# Experimental: as §1
# [5] = system: Staphylococcus aureus SA1199A; assay: broth micro-dilution MIC; format: cell-based
# Experimental: as §1
# [6] = system: Staphylococcus aureus X400; assay: broth micro-dilution MIC; format: cell-based
# Experimental: as §1
# [7] = system: Entercoccus faecium 180-1; assay: broth micro-dilution MIC; format: cell-based
# Experimental: as §1
# Escherichia coli EC14 = assay: broth micro-dilution MIC; format: cell-based
# Experimental: (§2) The formula I compounds have in vitro and in vivo activity against Gram-positive pathogenic bacteria. The MIC's were determined using a standard broth micro-dilution assay.
# [8] = system: Streptococcus pneumoniae P1; assay: broth micro-dilution MIC; format: cell-based
# Experimental: as §2
# [9] = system: Haemophilus influenzae RD; assay: broth micro-dilution MIC; format: cell-based; details: Haemophilus influenzae RD
# Experimental: as §2
# [10] = system: Enterococcus gallinarum 245; assay: broth micro-dilution MIC; format: cell-based; details: Enterococcus gallinarum 245
# Experimental: as §2
# Entercoccus faecium 180 = assay: broth micro-dilution MIC; format: cell-based; details: Entercoccus faecium 180
# Experimental: as §2
# Entercoccus faecium 2041 = assay: broth micro-dilution MIC; format: cell-based; details: Entercoccus faecium 2041
# Experimental: as §2
# [11] = system: Staphylococcus haemolyticus 415; assay: broth micro-dilution MIC; format: cell-based
# Experimental: as §2
# [12] = system: Staphylococcus haemolyticus 105; assay: broth micro-dilution MIC; format: cell-based
# Experimental: as §2
# Streptococcus pneumoniae = assay: mouse protection, experimentally-induced infection; format: in vivo; details: mice infected with Streptococcus pneumoniae, two doses
# Lactobacillus confusus = assay: agar dilution MIC, lactic acid bacteria; format: cell-based; details: Lactobacillus confusus, brain-heart infusion agar
# [13] = system: vancomycin-susceptible enterococci; assay: broth micro-dilution, mean geometric MIC; format: cell-based, Enterococcus faecium and Enterococcus faecalis; details: enterococci, 24-hour incubation
# Pediococcus acidilacti = assay: agar dilution MIC, lactic acid bacteria; format: cell-based; details: Pediococcus acidilacti (mean of 10), brain-heart infusion agar
# [14] = system: Leuconostoc mesenteroides; assay: agar dilution MIC, lactic acid bacteria; format: cell-based; details: Leuconostoc mesenteroides (mean of 4), brain-heart infusion agar
# Leuconostoc lactis = assay: agar dilution MIC, lactic acid bacteria; format: cell-based; details: Leuconostoc lactis (mean of 2), brain-heart infusion agar
# [15] = system: Staphylococcus aureus S13E; format: cell-based
# Experimental: as §1
# [16] = system: Staphylococcus aureus SA1199B; format: cell-based
# Experimental: as §1
# [17] = system: vancomycin-resistant enterococci; assay: broth micro-dilution, mean geometric MIC; format: cell-based, Enterococcus faecium and Enterococcus faecalis; details: enterococci, 24-hour incubation
# [18] = system: Leuconostoc pseudomesenteroides; assay: agar dilution MIC, lactic acid bacteria; format: cell-based; details: brain-heart infusion agar
# Leuconostoc citreum = assay: agar dilution MIC, lactic acid bacteria; format: cell-based; details: brain-heart infusion agar
# Pediococcus pentosaceus = assay: agar dilution MIC, lactic acid bacteria; format: cell-based; details: Pediococcus pentosaceus (mean of 2), brain-heart infusion agar
# Streptococcus pyogenes = assay: mouse protection, experimentally-induced infection; format: in vivo; details: mice infected with Streptococcus pyogenes, two doses
# Stapylococcus aureus = assay: mouse protection, experimentally-induced infection; format: in vivo; details: mice infected with Stapylococcus aureus, two doses
# [19] = system: Staphylococcus aureus 491; assay: broth micro-dilution MIC; format: cell-based
# Experimental: as §1
# [20] = system: Staphylococcus aureus 447; assay: broth micro-dilution MIC; format: cell-based
# Experimental: as §1
# [21] = system: Staphylococcus epidermidis 270; assay: broth micro-dilution MIC; format: cell-based
# Experimental: as §2
# [22] = system: Staphylococcus aureus 489; assay: broth micro-dilution MIC; format: cell-based
# Experimental: as §1
SMILES,MIC [1] [µg/mL],MIC [2] [µg/mL],MIC [3] [µg/mL],MIC (Entercoccus faecium 276) [µg/mL],MIC [6] [µg/mL],MIC [7] [µg/mL],MIC [11] [µg/mL],MIC [12] [µg/mL],ED50 (Streptococcus pneumoniae) [mg/kg/2],MIC (Lactobacillus confusus) [µg/mL],"mean geometric MIC, Vancomycin Sensitive Strains [13] [µg/mL]",MIC (Pediococcus acidilacti) [µg/mL],MIC [14] [µg/mL],MIC (Leuconostoc lactis) [µg/mL],"mean geometric MIC, Vancomycin Resistant Strains [17] [µg/mL]",MIC [18] [µg/mL],MIC (Leuconostoc citreum) [µg/mL],MIC (Pediococcus pentosaceus) [µg/mL],ED50 (Streptococcus pyogenes) [mg/kg/2],ED50 (Stapylococcus aureus) [mg/kg/2],also measured
CNC(CC(C)C)C(=O)NC1C(=O)NC(CC(N)=O)C(=O)NC2C(=O)NC3C(=O)NC(C(=O)NC(C(=O)O)c4cc(O)cc(O)c4-c4cc3ccc4O)C(OC3CC(C)(N)C(O)C(C)O3)c3ccc(c(Cl)c3)Oc3cc2cc(c3OC2OC(CO)C(O)C(O)C2OC2CC(C)(NCc3ccc(OC4CCCCC4)cc3)C(O)C(C)O2)Oc2ccc(cc2Cl)C1O (centres unmarked) [Compound 124],0.5,1,4,≤ 0.06,1,≤ 0.06,1,2,0.041,16,0.047,20,16,16,0.84,64,64,16,0.092,,MIC [4]: ≤ 0.06 µg/mL; MIC [5]: ≤ 0.06 µg/mL; MIC (Escherichia coli EC14): > 64 µg/mL; MIC [8]: ≤ 0.06 µg/mL; MIC [9]: 16 µg/mL; MIC [10]: 1 µg/mL; MIC (Entercoccus faecium 180): ≤ 0.06 µg/mL; MIC (Entercoccus faecium 2041): ≤ 0.06 µg/mL; MIC [15]: ≤ 0.06 µg/mL; MIC [16]: ≤ 0.06 µg/mL
CNC(CC(C)C)C(=O)NC1C(=O)NC(CC(N)=O)C(=O)NC2C(=O)NC3C(=O)NC(C(=O)NC(C(=O)O)c4cc(O)cc(O)c4-c4cc3ccc4O)C(OC3CC(C)(N)C(O)C(C)O3)c3ccc(c(Cl)c3)Oc3cc2cc(c3OC2OC(CO)C(O)C(O)C2OC2CC(C)(NCc3ccc(SC)cc3)C(O)C(C)O2)Oc2ccc(cc2Cl)C1O (centres unmarked) [Compound 41],,,,,,,,,0.087,64,0.21,71,91,91,0.84,> 128,> 128,91,0.082,,
CNC(CC(C)C)C(=O)NC1C(=O)NC(CC(N)=O)C(=O)NC2C(=O)NC3C(=O)NC(C(=O)NC(C(=O)O)c4cc(O)cc(O)c4-c4cc3ccc4O)C(OC3CC(C)(N)C(O)C(C)O3)c3ccc(c(Cl)c3)Oc3cc2cc(c3OC2OC(CO)C(O)C(O)C2OC2CC(C)(NCc3ccc(Cc4ccccc4)cc3)C(O)C(C)O2)Oc2ccc(cc2Cl)C1O (centres unmarked) [Compound 50],,,,,,,,,0.057,64,0.054,51,64,64,0.12,128,128,64,0.047,0.1,
CNC(CC(C)C)C(=O)NC1C(=O)NC(CC(N)=O)C(=O)NC2C(=O)NC3C(=O)NC(C(=O)NC(C(=O)O)c4cc(O)cc(O)c4-c4cc3ccc4O)C(OC3CC(C)(N)C(O)C(C)O3)c3ccc(c(Cl)c3)Oc3cc2cc(c3OC2OC(CO)C(O)C(O)C2OC2CC(C)(NCc3cccc(Oc4ccccc4)c3)C(O)C(C)O2)Oc2ccc(cc2Cl)C1O (centres unmarked) [Compound 49],,,,,,,,,< 0.031,64,0.083,55,64,64,0.71,128,128,64,0.045,0.053,
CNC(CC(C)C)C(=O)NC1C(=O)NC(CC(N)=O)C(=O)NC2C(=O)NC3C(=O)NC(C(=O)NC(C(=O)O)c4cc(O)cc(O)c4-c4cc3ccc4O)C(OC3CC(C)(N)C(O)C(C)O3)c3ccc(c(Cl)c3)Oc3cc2cc(c3OC2OC(CO)C(O)C(O)C2OC2CC(C)(NCc3ccc(C=Cc4ccccc4)cc3)C(O)C(C)O2)Oc2ccc(cc2Cl)C1O (centres unmarked) [Compound 29],≤ 0.06,0.25,1,0.25,0.25,≤ 0.06,1,4,0.054,8,0.031,4.0,6.7,5.7,0.21,16,32,8.0,0.1,0.088,MIC [19]: 0.25 µg/mL; MIC [20]: 0.25 µg/mL; MIC [5]: ≤ 0.06 µg/mL; MIC [10]: 0.25 µg/mL; MIC (Entercoccus faecium 180): 0.25 µg/mL; MIC (Entercoccus faecium 2041): 0.25 µg/mL; MIC [21]: 0.5 µg/mL; MIC [15]: 1 µg/mL; MIC [16]: 0.25 µg/mL
CNC(CC(C)C)C(=O)NC1C(=O)NC(CC(N)=O)C(=O)NC2C(=O)NC3C(=O)NC(C(=O)NC(C(=O)O)c4cc(O)cc(O)c4-c4cc3ccc4O)C(OC3CC(C)(N)C(O)C(C)O3)c3ccc(c(Cl)c3)Oc3cc2cc(c3OC2OC(CO)C(O)C(O)C2OC2CC(C)(NCc3ccc4c(c3)Cc3ccccc3-4)C(O)C(C)O2)Oc2ccc(cc2Cl)C1O (centres unmarked) [Compound 32],0.5,1,1,0.125,0.5,≤ 0.06,4,4,0.039,16,0.089,12.1,16,16,0.50,,64,16,0.034,0.055,MIC [22]: 1 µg/mL; MIC [20]: 0.5 µg/mL; MIC [5]: ≤ 0.06 µg/mL; MIC [9]: > 64 µg/mL; MIC [21]: 1 µg/mL; MIC [15]: 1 µg/mL
CNC(CC(C)C)C(=O)NC1C(=O)NC(CC(N)=O)C(=O)NC2C(=O)NC3C(=O)NC(C(=O)NC(C(=O)O)c4cc(O)cc(O)c4-c4cc3ccc4O)C(OC3CC(C)(N)C(O)C(C)O3)c3ccc(c(Cl)c3)Oc3cc2cc(c3OC2OC(CO)C(O)C(O)C2OC2CC(C)(NCc3ccc(-c4ccc(-c5ccccc5)cc4)cc3)C(O)C(C)O2)Oc2ccc(cc2Cl)C1O (centres unmarked) [Compound 36],2,4,8,2,4,≤ 0.06,8,4,0.31,32,0.21,9.2,16,16,0.25,32,32,16,0.28,0.19,MIC [22]: 2 µg/mL; MIC [19]: 1 µg/mL; MIC [20]: 2 µg/mL; MIC (Entercoccus faecium 180): 0.25 µg/mL; MIC (Entercoccus faecium 2041): 1 µg/mL; MIC [21]: 2 µg/mL; MIC [15]: 2 µg/mL; MIC [16]: 4 µg/mL
